This note sets out measurements from patent US8680111B2 (Pfizer Inc., priority 2012, dated 2014).

Like-named read-outs stand apart in the source and are kept apart here.

One may read the Ki as a measure of affinity in units of concentration, obtained from inhibition or displacement. In general, IC50 refers to the concentration that inhibits the measured activity by half.

Data set [1] concerns the target T1, human recombinant L1196M ALK kinase domain (amino acids 1093-1411) (Homo sapiens, UniProt Q9UM73, L1196M).
T1 construct: ALK kinase domain (amino acids 1093-1411); made in house
Nature of the data set: L1196M mutant ALK enzyme assay (microfluidic mobility shift). It counts as biochemical.

Data set [2] has as its target T2, human recombinant wild-type ALK kinase domain (amino acids 1093-1411) (Homo sapiens, UniProt Q9UM73).
T2 construct: ALK kinase domain (amino acids 1093-1411); made in house
Nature of the data set: Wild-type ALK enzyme assay (microfluidic mobility shift). It counts as biochemical. The note with it: ATP 60 μM, competitive inhibition fit.
Method: The reactions were incubated for 1 h at room temperature, stopped by the addition of 0.1 M EDTA, pH 8, and the extent of reactions (˜15-20% conversion with no inhibitor) was determined after electrophoretic separation of the fluorescently labeled peptide substrate and phosphorylated product on an LabChip EZ Reader II (Caliper Life Sciences, Hopkinton, Mass.).

Data set [3] has as its target T3, L1196M EML4-ALK (NIH-3T3 EML4-ALK v1 L1196M cells) (Homo sapiens, UniProt Q9UM73, L1196M).
T3 construct: expressed in transfected cells; the other entry of the earlier key: EML4 (Q9HC35, Echinoderm microtubule-associated protein-like 4)
Nature of the data set: Cellular phospho-ALK (Tyr1604) ELISA assay for L1196M EML4-ALK. It counts as cell-based.

The target of data set [4] is T4, WT EML4-ALK (NIH-3T3 EML4-ALK wt v1 cells) (Homo sapiens, UniProt Q9UM73).
T4 construct: expressed in transfected cells; the other entry of the earlier key: EML4 (Q9HC35, Echinoderm microtubule-associated protein-like 4)
The data set can be described thus: Cellular phospho-ALK (Tyr1604) ELISA assay for WT EML4-ALK. In kind it is cell-based. The note with it: 1 hour. Background: In an ELISA, binding on a coated surface is turned into a signal by an enzyme label.

The conditions of data set [5]: cc_pd bond; Pd(OAc)2/cataCXium A/KOAc; t-amyl alcohol; 30.0 mM; 120.0 °C.
[6] abbreviates: ATP 60 μM, 0.5 nM enzyme, competitive inhibition fit, read-out: L1196M ALK enzyme assay (Ki).
Where [7] appears, read: read-out: WT ALK enzyme assay (Ki).
Setting [8] is: NIH-3T3 EML4-ALK v1 L1196M cells, 1 hour, phospho-ALK (Tyr1604), read-out: ELISA assay for L1196M EML4-ALK (IC50).
[9] abbreviates: read-out: ELISA assay for WT EML4-ALK (IC50).

With `C[C@H]1Oc2nc(cnc2N)-c2c(C#N)cccc2CN(C)C(=O)c2ccc(F)cc21` [Example 97, (5R)-8-amino-3-fluoro-5,17-dimethyl-18-oxo-5,16,17,18-tetrahydro-7,11-(azeno)dibenzo[g,l][1,4,10]oxadiazacyclotetradecine-12-carbonitrile], the Ki in data set [1] (setting [6]) came out at 24.7 nM; in data set [2] (setting [7]) it was 3.5 nM. This compound had a ring closure, isolated yield (amide bond, 12-membered ring, HATU/DIEA, DMF, 6.7 mM) of 42%.
As to `CCc1onc2c1-c1cnc(N)c(c1)O[C@H](C)c1cc(F)ccc1C(=O)N(C)C2` [Example 82, (10R)-7-amino-3-ethyl-12-fluoro-10,16-dimethyl-16,17-dihydro-8,4-(metheno)[1,2]oxazolo[4,3-h][2,5,11]benzoxadiazacyclotetradecin-15(10H)-one], the inhibitory constant (Ki) was 2.39 nM in data set [1] (setting [6]) and under 0.2 nM in data set [2] (setting [7]). The compound also registered a ring closure, isolated yield (amide bond, 12-membered ring, 3 steps) of 66%. The figures for the IC50 in data set [3] (setting [8]) and in data set [4] (setting [9]) were 183 nM and 11.1 nM, respectively.
As for `Cn1ncc2c1-c1cnc(N)c(c1)OCc1cc(F)ccc1OCCC2`, the ring closure, isolated yield (ether bond, 13-membered ring, NaH, DMF, 51.0 mM, 50.0 °C, 2 steps) stood at 37%.
Turning to `C[C@H]1Oc2nc(cnc2N)-c2cn(C)nc2CN(C)C(=O)c2ccc(F)cc21` [Example 56, (10R)-7-amino-12-fluoro-2,10,16-trimethyl-16,17-dihydro-2H-8,4-(azeno)pyrazolo[4,3-h][2,5,11]benzoxadiazacyclotetradecin-15(10H)-one], the results for the Ki in data set [1] (setting [6]) and in data set [2] (setting [7]) were 0.88 nM and 0.2 nM, respectively. Also, for the setting “cc_pd bond, 12-membered ring, Pd(OAc)2/cataCXium A/KOAc, t-amyl alcohol, 69.8 mM, 120.0 °C”, the ring closure, isolated yield came to 6%. For the same compound, the IC50 in data set [3] (setting [8]) was determined as 35 nM; in data set [4] (setting [9]) it was 1.83 nM.
With `C[C@H]1Oc2nc(cnc2N)-c2c(C#N)nn(CC(F)F)c2CN(C)C(=O)c2ccc(F)cc21` [Example 90, (10R)-7-amino-1-(2,2-difluoroethyl)-12-fluoro-10,16-dimethyl-15-oxo-10,15,16,17-tetrahydro-1H-8,4-(azeno)pyrazolo[4,3-h][2,5,11]benzoxadiazacyclotetradecine-3-carbonitrile], the figures for the Ki in data set [1] (setting [6]) and in data set [2] (setting [7]) were 0.249 nM and 0.079 nM, respectively. The compound also came in with a ring closure, isolated yield (cc_pd bond, 12-membered ring, Pd(OAc)2/cataCXium A/KOAc, t-amyl alcohol, 46.7 mM) of 11%. Besides, the IC50 in data set [3] (setting [8]) turned out to be 13 nM; in data set [4] (setting [9]), 1.32 nM.
Turning to `Cc1cnc2nc3c(n2c1)-c1cnc(N)c(c1)O[C@H](C)c1cc(F)ccc1C(=O)N(C)C3` [Example 57, (5R)-8-amino-3-fluoro-5,14,19-trimethyl-18,19-dihydro-7,11-(metheno)-pyrimido[2′,1′:2,3]imidazo[4,5-h][2,5,11]benzoxadiazacyclotetradecin-20(5H)-one], the figures for the Ki in data set [1] (L1196M ALK enzyme assay (Ki)) and in data set [2] (WT ALK enzyme assay (Ki)) were 2 nM and 0.14 nM, respectively. Moreover, the ring closure, isolated yield (amide bond, 12-membered ring, HATU/DIEA, DMF, 25.1 mM) worked out at 52%. Further, the IC50 stood at 365 nM in data set [3] (ELISA assay for L1196M EML4-ALK (IC50)) and 6.79 nM in data set [4] (ELISA assay for WT EML4-ALK (IC50)).
In the case of `Cc1cnc2nc3cn2c1-c1cnc(N)c(n1)O[C@H](C)c1cc(F)ccc1C(=O)N(C)C3`, the ring closure, yield after HPLC in data set [5] amounted to 7%.
In the case of `C[C@H]1Oc2nc(cnc2N)-c2c(nn(C)c2C#N)CNC(=O)c2ccc(F)cc21` [Example 102, (10R)-7-amino-12-fluoro-2,10-dimethyl-15-oxo-10,15,16,17-tetrahydro-2H-8,4-(azeno)pyrazolo[4,3-h][2,5,11]benzoxadiazacyclotetradecine-3-carbonitrile], the Ki turned out to be 1.41 nM in data set [1] (setting [6]) and 0.33 nM in data set [2] (setting [7]). This compound also returned a ring closure, isolated yield (amide bond, 12-membered ring, KOH, MeOH, […], 2 steps) of 28%. Further, the IC50 in data set [3] (setting [8]) worked out at 83.8 nM; in data set [4] (setting [9]), 11.6 nM.
Consider `C[C@H]1Oc2nc(cnc2N)-c2c(C#N)n[nH]c2CN(C)C(=O)c2ccc(F)cc21` [Example 89, (10R)-7-amino-12-fluoro-10,16-di methyl-15-oxo-10,15,16,17-tetrahydro-1H-8,4-(azeno)pyrazolo[4,3-h][2,5,11]benzoxadiazacyclotetradecine-3-carbonitrile], for which the Ki was determined as 0.275 nM in data set [1] (setting [6]) and 0.339 nM in data set [2] (setting [7]). Further, the ring closure, isolated yield (amide bond, 12-membered ring, HATU/DIEA, DMF, 12.6 mM) is 15.8%. For the same compound, the IC50 stood at 56 nM in data set [3] (setting [8]) and 6.43 nM in data set [4] (setting [9]).
Take `C[C@@H]1Oc2nc(cnc2N)-c2cn(C)nc2CN(C)C(=O)c2ccc(F)cc21` [Example 83, (10S)-7-amino-12-fluoro-2,10,16-trimethyl-16,17-dihydro-2H-8,4-(azeno)pyrazolo[4,3-h][2,5,11]benzoxadiazacyclotetradecin-15(10H)-one]: the Ki in data set [1] (setting [6]) came to 74 nM; in data set [2] (setting [7]), 47.6 nM. The ring closure, isolated yield (cc_pd bond, 12-membered ring, Pd(OAc)2/cataCXium A/KOAc, t-amyl alcohol, 120.0 °C, 2 steps) is 11%.
On to `CC1Oc2cc(cnc2N)-c2c(cnn2C)CCCCCOc2ccc(F)cc21` (stereo not drawn), for which the ring closure, isolated yield (cc_pd bond, Pd(OAc)2/cataCXium A/KOAc, t-amyl alcohol, 30.0 mM, 120.0 °C) was found to be 43%.
`C[C@H]1Oc2cc(nnc2N)-c2c(nn(C)c2C#N)CN(C)C(=O)c2ccc(F)cc21` [Example 60, (10R)-7-amino-12-fluoro-2,10,16-trimethyl-15-oxo-10,15,16,17-tetrahydro-2H-8,4-(metheno)pyrazolo[4,3-h][2,5,6,11]benzoxatriazacyclotetradecine-3-carbonitrile]: the Ki amounted to 21.5 nM in data set [1] (setting [6]) and 4.6 nM in data set [2] (setting [7]). Moreover, under “amide bond, 12-membered ring, HATU/DIEA, DMF/THF, 18.6 mM, 0.0 °C”, the ring closure, isolated yield is 9%.
On to `COc1nccc2c1-c1cnc(N)c(c1)O[C@H](C)c1cc(F)ccc1C(=O)N(C)C2` [Example 34, (11R)-8-amino-13-fluoro-4-methoxy-11,17-dimethyl-17,18-dihydro-9,5-(metheno)pyrido[3,4-h][2,5,11]benzoxadiazacyclotetradecin-16(11H)-one], for which the Ki in data set [1] (setting [6]) is 15 nM; in data set [2] (setting [7]), 0.56 nM. The values for the IC50 in data set [3] (setting [8]) and in data set [4] (setting [9]) were 890 nM and 36.1 nM, respectively.
As to `C[C@H]1Oc2nc(cnc2N)-c2c(nn(C3COC3)c2C#N)CN(C)C(=O)c2ccc(F)cc21` [Example 93, (10R)-7-amino-12-fluoro-10,16-di methyl-2-(oxetan-3-yl)-15-oxo-10,15,16,17-tetrahydro-2H-8,4-(azeno) pyrazolo[4,3-h][2,5,11]benzoxadiazacyclotetradecine-3-carbonitrile], the Ki came to 0.3 nM in data set [1] (setting [6]) and 0.048 nM in data set [2] (setting [7]). Moreover, the IC50 in data set [3] (setting [8]) is 31.7 nM; in data set [4] (setting [9]), 3.23 nM.
In the same order, the values of `Cc1nn(C)c2c1-c1cnc(N)c(c1)OC(C)c1cc(F)ccc1C(=O)N(C1CC1)C2` (single isomer, unassigned) [Example 12, 7-amino-16-cyclopropyl-12-fluoro-1,3,10-trimethyl-16,17-dihydro-1H-8,4-(metheno)pyrazolo[4,3-h][2,5,11]benzoxadiazacyclotetradecin-15(10H)-one] are 29 nM, 10 nM, 700 nM and 34.9 nM.
On to `C[C@H]1Oc2nc(cnc2N)-c2c(nn(C)c2C#N)CN(C2CC2)C(=O)c2ccc(F)cc21` [Example 54, (10R)-7-amino-16-cyclopropyl-12-fluoro-2,10-dimethyl-15-oxo-10,15,16,17-tetrahydro-2H-8,4-(azeno)pyrazolo[4,3-h][2,5,11]benzoxadiazacyclotetradecine-3-carbonitrile], for which the Ki was 0.06 nM in data set [1] (setting [6]) and under 0.07 nM in data set [2] (setting [7]). The compound also gave a ring closure, isolated yield (cc_pd bond, 12-membered ring, Pd(OAc)2/cataCXium A/PivOH/KOAc, t-AmOH/water (1 drop), 37.0 mM, […]) of 54%. Also, the IC50 in data set [3] (setting [8]) was found to be 3.03 nM; in data set [4] (setting [9]) it was 0.332 nM.
Consider `CCN1Cc2c(c(C)nn2C)-c2cnc(N)c(c2)OC(C)c2cc(F)ccc2C1=O` (single isomer, unassigned) [Example 9, 7-amino-16-ethyl-12-fluoro-1,3,10-trimethyl-16,17-dihydro-1H-8,4-(metheno)pyrazolo[4,3-h][2,5,11]benzoxadiazacyclotetradecin-15(10H)-one], for which the figures for the Ki in data set [1] (setting [6]) and in data set [2] (setting [7]) were 1.06 nM and 0.2 nM, respectively. Also, the figures for the IC50 in data set [3] (setting [8]) and in data set [4] (setting [9]) were 9.29 nM and 0.35 nM, respectively.
